This is an account of results in patent US9695155B2, “Herbicidal substituted pyrimidinyloxy benzene compounds” (E. I. DU PONT DE NEMOURS AND COMPANY, priority 2013, dated 2017).

The test system of one experiment is giant foxtail. Description: Test A preemergence. Format: in vivo, Setaria faberii. The conditions noted are these: for Foxtail, Giant plant response rating (0 to 100 scale): 125 g ai/ha. Summed up: (§1)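 Visual 0–100 rating (100 = complete control) taken about 10 d post-treatment relative to untreated checks. Preemergence: directed soil spray on sown loam/sand pots. Postemergence: seedlings 2–10 cm, 1–2 leaf. Non-phytotoxic solvent formulation with surfactant.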

For another experiment, the system named is pigweed. Description: Test A postemergence. The experiment is classed as in vivo, Amaranthus retroflexus. Summed up: as §1
The subject of a further experiment is Heteranthera limosa. Description: Test B flooded paddy test. The experiment is classed as in vivo. The conditions noted are these: Flood, 250 g ai/ha, 0 to 100 scale where 0 is no effect and 100 is complete control. Summed up: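 Post-emergence paddy-water application at the 2-leaf stage, with 3 cm flood kept for the whole test. Response was judged visually relative to controls after 13 to 15 greenhouse days, 0 indicating no effect and 100 complete control.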

A further experiment concerns Italian ryegrass. Nature of the experiment: Test C preemergence. Format: in vivo, Lolium multiflorum. Summed up: (§2)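 Rated visually on 0–100 (100 = complete control) after 13–15 days under glass. Treatments went onto freshly seeded loam/sand soil or onto emerged plants at the 1- to 4-leaf stage, using a surfactant-containing solvent formulation.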
The next experiment concerns galium. Nature of the experiment: Test C preemergence. Format: in vivo, Galium aparine. Summed up:
as §2

The subject of the next experiment is johnsongrass. Nature of the experiment: Test C preemergence. Format: in vivo, Sorghum halepense. Summed up:
as §2

In another experiment the test system is morningglory. Description: Test C preemergence. Format: in vivo, Ipomoea coccinea. Summed up:
as §2

For another experiment, the system named is oilseed rape. Description: Test C preemergence. The experiment is classed as in vivo, Brassica napus. Summed up: as §2
Another experiment relates to velvetleaf. Nature of the experiment: Test C preemergence. Format: in vivo, Abutilon theophrasti. Summed up:
as §2

Setting [1] is: 31 g ai/ha, 0 to 100 scale where 0 is no effect and 100 is complete control, visual, approximately 10 days.
Where [2] appears, read: 31 g ai/ha, 0 to 100 scale, 0 no effect, 100 complete control.
Setting [3] is: 125 g ai/ha, 0 to 100 scale, 0 no effect, 100 complete control.
The mark [4] stands for this setting: 16 g ai/ha, preemergence, scale 0 to 100 (0 no effect, 100 complete control).
[5] abbreviates: 125 g ai/ha, preemergence, scale 0 (no effect) to 100 (complete control).
Setting [6] is: Preemergence, 62 g ai/ha, scale 0 to 100, 0 no effect, 100 complete control.

Take `FCc1cccc(Oc2ncc(Cl)cn2)c1-n1cc(Cl)cn1` [Compound 250]: the “Plant response rating, Foxtail, Giant” value in the experiment with giant foxtail (setting [1]) came to 30. Further, the “Foxtail, Giant plant response rating (0 to 100 scale)” value (“Foxtail, Giant plant response rating” for short) with giant foxtail is 100. Besides, the entries for the “Plant response rating, Pigweed” value in the experiment with pigweed (setting [2]) and in the experiment with pigweed (setting [3]) were 60 and 90, respectively. The “Plant response rating, Ducksalad” value with Heteranthera limosa worked out at 70. For the same compound, the “Ryegrass, Italian plant response rating” value in the experiment on Italian ryegrass (setting [4]) is 0; in the experiment on Italian ryegrass (setting [5]), 15. Moreover, the “Plant response rating, Ryegrass, Italian” value with Italian ryegrass (setting [6]) came to 5. Further, the entries for the “Galium plant response rating” value with galium (setting [4]) and with galium (setting [5]) were 0 and 98, respectively. The “Plant response rating, Galium” value in the experiment on galium (setting [6]) is 70. The results for the “Johnsongrass plant response rating” value in the experiment with johnsongrass (setting [4]) and with johnsongrass (setting [5]) were 0 and 70, respectively. For the same compound, in the experiment on johnsongrass (setting [6]), the “Plant response rating, Johnsongrass” value is 35. The “Morningglory plant response rating” value with morningglory (setting [4]) amounted to 0; with morningglory (setting [5]), 50. Also, the “Plant response rating, Morningglory” value in the experiment on morningglory (setting [6]) is on record as 50. The “Oilseed Rape plant response rating” value in the experiment with oilseed rape (setting [4]) and with oilseed rape (setting [5]) was 100 in each case. The “Plant response rating, Oilseed Rape” value in the experiment on oilseed rape (setting [6]) is reported as 100. Besides, the “Velvetleaf plant response rating” value with velvetleaf (setting [4]) and in the experiment on velvetleaf (setting [5]) was 100 throughout. Moreover, the “Plant response rating, Velvetleaf” value in the experiment on velvetleaf (setting [6]) is reported as 100.

For `N#Cc1cccc(Oc2ncc(Cl)cn2)c1-n1cnc(C(F)(F)F)c1` [Compound 252, 3-[(5-chloro-2-pyrimidinyl)oxy]-2-[4-(trifluoromethyl)-1H-imidazol-1-yl]benzonitrile], the “Foxtail, Giant plant response rating” value with giant foxtail amounted to 100. The pest or weed control at 31 g/ha in the experiment with giant foxtail (Setaria faberi, pre-emergence, 240 h, 31 g ai/ha, 0 to 100 scale where 0 is no effect and 100 is complete control, visual, approximately 10 days, read-out: Plant response rating, Foxtail, Giant) stood at 70%; in the experiment with pigweed (Amaranthus retroflexus, post-emergence, 31 g ai/ha, 0 to 100 scale, 0 no effect, 100 complete control, read-out: Plant response rating, Pigweed), 80%. In addition, the pest or weed control at 500 g/ha came out at 100% with giant foxtail (Setaria faberi, pre-emergence, 240 h, 500 g ai/ha, 0 to 100 scale where 0 is no effect and 100 is complete control, read-out: Foxtail, Giant plant response rating); 100% in the experiment on pigweed (Amaranthus retroflexus, post-emergence, 500 g ai/ha, 0 to 100 scale where 0 is no effect and 100 is complete control, read-out: Plant response rating, Pigweed). In addition, the pest or weed control at 125 g/ha came out at 100% in the experiment on pigweed (Amaranthus retroflexus, post-emergence, 125 g ai/ha, 0 to 100 scale, 0 no effect, 100 complete control, read-out: Plant response rating, Pigweed); 90% with Italian ryegrass (Lolium multiflorum, pre-emergence, 125 g ai/ha, preemergence, scale 0 (no effect) to 100 (complete control), read-out: Ryegrass, Italian plant response rating); 98% in the experiment with galium (Galium, pre-emergence, 125 g ai/ha, preemergence, scale 0 (no effect) to 100 (complete control), read-out: Galium plant response rating); 100% with johnsongrass (Sorghum halepense, pre-emergence, 125 g ai/ha, preemergence, scale 0 (no effect) to 100 (complete control), read-out: Johnsongrass plant response rating); 100% in the experiment with morningglory (Ipomoea, pre-emergence, 125 g ai/ha, preemergence, scale 0 (no effect) to 100 (complete control), read-out: Morningglory plant response rating); 100% in the experiment on velvetleaf (Abutilon theophrasti, pre-emergence, 125 g ai/ha, preemergence, scale 0 (no effect) to 100 (complete control), read-out: Velvetleaf plant response rating). In the experiment on Heteranthera limosa (Heteranthera limosa, read-out: Plant response rating, Ducksalad), the pest or weed control at 250 g/ha was 75%. Further, the pest or weed control at 16 g/ha in the experiment on Italian ryegrass (Lolium multiflorum, pre-emergence, 16 g ai/ha, preemergence, scale 0 to 100 (0 no effect, 100 complete control), read-out: Ryegrass, Italian plant response rating) was 0%; with galium (Galium, pre-emergence, 16 g ai/ha, preemergence, scale 0 to 100 (0 no effect, 100 complete control), read-out: Galium plant response rating) it was 80%; in the experiment on johnsongrass (Sorghum halepense, pre-emergence, 16 g ai/ha, preemergence, scale 0 to 100 (0 no effect, 100 complete control), read-out: Johnsongrass plant response rating), 5%; with morningglory (Ipomoea, pre-emergence, 16 g ai/ha, preemergence, scale 0 to 100 (0 no effect, 100 complete control), read-out: Morningglory plant response rating) it was 45%; with velvetleaf (Abutilon theophrasti, pre-emergence, 16 g ai/ha, preemergence, scale 0 to 100 (0 no effect, 100 complete control), read-out: Velvetleaf plant response rating) it was 75%. The pest or weed control at 62 g/ha was 60% in the experiment on Italian ryegrass (Lolium multiflorum, pre-emergence, Preemergence, 62 g ai/ha, scale 0 to 100, 0 no effect, 100 complete control, read-out: Plant response rating, Ryegrass, Italian); 90% with galium (Galium, pre-emergence, Preemergence, 62 g ai/ha, scale 0 to 100, 0 no effect, 100 complete control, read-out: Plant response rating, Galium); 80% with johnsongrass (Sorghum halepense, pre-emergence, Preemergence, 62 g ai/ha, scale 0 to 100, 0 no effect, 100 complete control, read-out: Plant response rating, Johnsongrass); 95% in the experiment on morningglory (Ipomoea, pre-emergence, Preemergence, 62 g ai/ha, scale 0 to 100, 0 no effect, 100 complete control, read-out: Plant response rating, Morningglory); 100% in the experiment with velvetleaf (Abutilon theophrasti, pre-emergence, Preemergence, 62 g ai/ha, scale 0 to 100, 0 no effect, 100 complete control, read-out: Plant response rating, Velvetleaf). For the same compound, the plant injury at 16 g/ha with oilseed rape (Brassica napus, pre-emergence, 16 g ai/ha, preemergence, scale 0 to 100 (0 no effect, 100 complete control), read-out: Oilseed Rape plant response rating) was 80%. For the same compound, the plant injury at 125 g/ha in the experiment on oilseed rape (Brassica napus, pre-emergence, 125 g ai/ha, preemergence, scale 0 (no effect) to 100 (complete control), read-out: Oilseed Rape plant response rating) came to 100%. For the same compound, the plant injury at 62 g/ha in the experiment with oilseed rape (Brassica napus, pre-emergence, Preemergence, 62 g ai/ha, scale 0 to 100, 0 no effect, 100 complete control, read-out: Plant response rating, Oilseed Rape) stood at 100%.

`Fc1cccc(Oc2ncc(Cl)cn2)c1-n1cc(OCC(F)(F)F)cn1` [Compound 270]: the “Plant response rating, Foxtail, Giant” value with giant foxtail (setting [1]) was 40. The “Foxtail, Giant plant response rating” value with giant foxtail is on record as 100. Moreover, the “Plant response rating, Pigweed” value stood at 60 in the experiment on pigweed (setting [2]) and 100 in the experiment on pigweed (setting [3]). Besides, the “Plant response rating, Ducksalad” value in the experiment on Heteranthera limosa is 100. The “Ryegrass, Italian plant response rating” value with Italian ryegrass (setting [4]) amounted to 0; with Italian ryegrass (setting [5]), 50. Moreover, the “Plant response rating, Ryegrass, Italian” value with Italian ryegrass (setting [6]) turned out to be 10. The figures for the “Galium plant response rating” value with galium (setting [4]) and in the experiment with galium (setting [5]) were 70 and 100, respectively. Moreover, in the experiment on galium (setting [6]), the “Plant response rating, Galium” value was found to be 95. In addition, the results for the “Johnsongrass plant response rating” value with johnsongrass (setting [4]) and in the experiment with johnsongrass (setting [5]) were 0 and 95, respectively. Besides, the “Plant response rating, Johnsongrass” value with johnsongrass (setting [6]) turned out to be 40. Further, the “Morningglory plant response rating” value with morningglory (setting [4]) is recorded as 0; with morningglory (setting [5]) it was 100. Further, the “Plant response rating, Morningglory” value in the experiment with morningglory (setting [6]) is on record as 55. Also, the figures for the “Oilseed Rape plant response rating” value in the experiment with oilseed rape (setting [4]) and in the experiment with oilseed rape (setting [5]) were 95 and 100, respectively. Also, the “Plant response rating, Oilseed Rape” value in the experiment on oilseed rape (setting [6]) was found to be 100. For the same compound, the “Velvetleaf plant response rating” value stood at 0 in the experiment on velvetleaf (setting [4]) and 100 in the experiment with velvetleaf (setting [5]). Besides, the “Plant response rating, Velvetleaf” value in the experiment on velvetleaf (setting [6]) is given as 98.
